Laboratory results from patent publication US8183415B2, “Methods of synthesizing cinacalcet and salts thereof” (Amgen, Inc., priority 2007, dated 2012).
Structures can show the parent of a compound that is named as a salt.

What was measured:
calcium-sensing receptor [1] = target: T1, calcium-sensing receptor (Homo sapiens, UniProt P41180); details: patients with parathyroid carcinoma; cited from earlier work
T1 construct: a calcium-sensing receptor on the cell surface of the parathyroid gland; from tissue; host or cells: parathyroid gland of patients (in vivo, clinical use)
T1 sequence (P41180 20-1078): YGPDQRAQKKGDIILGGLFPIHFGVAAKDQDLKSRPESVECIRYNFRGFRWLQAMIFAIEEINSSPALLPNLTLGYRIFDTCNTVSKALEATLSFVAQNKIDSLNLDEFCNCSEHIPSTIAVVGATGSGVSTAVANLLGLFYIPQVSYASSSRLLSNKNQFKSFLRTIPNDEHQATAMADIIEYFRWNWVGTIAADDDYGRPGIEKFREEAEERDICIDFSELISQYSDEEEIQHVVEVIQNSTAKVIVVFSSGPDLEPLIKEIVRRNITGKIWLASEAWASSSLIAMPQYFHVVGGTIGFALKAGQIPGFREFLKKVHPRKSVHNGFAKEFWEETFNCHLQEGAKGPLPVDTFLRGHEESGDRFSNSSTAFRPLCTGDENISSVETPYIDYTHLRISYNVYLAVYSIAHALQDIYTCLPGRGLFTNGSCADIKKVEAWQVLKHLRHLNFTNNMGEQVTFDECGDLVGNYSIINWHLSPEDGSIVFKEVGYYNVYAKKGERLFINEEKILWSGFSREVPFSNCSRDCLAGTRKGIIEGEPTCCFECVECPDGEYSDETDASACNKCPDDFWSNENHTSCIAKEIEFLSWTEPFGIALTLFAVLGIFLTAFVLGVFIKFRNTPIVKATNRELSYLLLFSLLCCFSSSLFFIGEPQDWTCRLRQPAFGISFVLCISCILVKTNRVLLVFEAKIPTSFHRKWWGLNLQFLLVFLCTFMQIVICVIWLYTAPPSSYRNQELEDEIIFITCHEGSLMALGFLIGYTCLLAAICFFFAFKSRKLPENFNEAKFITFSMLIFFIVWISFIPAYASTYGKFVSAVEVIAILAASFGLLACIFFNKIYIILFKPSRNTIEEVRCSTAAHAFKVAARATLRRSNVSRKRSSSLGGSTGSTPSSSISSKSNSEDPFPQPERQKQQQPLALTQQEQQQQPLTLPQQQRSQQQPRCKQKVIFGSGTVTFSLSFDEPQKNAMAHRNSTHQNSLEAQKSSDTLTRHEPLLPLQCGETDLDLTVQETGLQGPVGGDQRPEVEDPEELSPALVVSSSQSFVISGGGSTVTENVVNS

calcium-sensing receptor [2] = target: T1, calcium-sensing receptor; details: patients with chronic kidney disease on dialysis with secondary hyperparathyroidism; cited from earlier work

C[C@@H](NCCCc1cccc(C(F)(F)F)c1)c1cccc2ccccc12.Cl [Form III]
thermodynamic stability of crystalline form (variety of solvent systems and crystallization methods, XRPD): metastable form

C[C@@H](NCCCc1cccc(C(F)(F)F)c1)c1cccc2ccccc12.Cl [Form II]
stability of crystalline form (at room temperature): unstable

C[C@@H](NCCCc1cccc(C(F)(F)F)c1)c1cccc2ccccc12 [Sensipar, N-[1-(R)-(−)-(1-naphthyl)ethyl]-3-[3-(trifluoromethyl)phenyl]-1-aminopropane hydrochloride]
effect on calcium levels (calcium-sensing receptor [1]): reduce high levels of calcium | therapeutic efficacy (calcium-sensing receptor [2]): therapeutically effective
